Calls of active or inactive are those of the source. No cut-off for these calls is given here.
What was measured:
[1] = Drug uptake in human K562 cells at 2 uM after 1 to 24 hrs by flow cytometry; format: ADME, cell-based; settings: k562, 2 µM
K562 [2] = experiment: Cell cycle arrest in human K562 cells assessed as accumulation at sub-G1 phase at 1 uM up to 48 hrs by propidium iodide staining based flow cytometry relative to control; format: functional
MKN-45 [3] = experiment: Induction of apoptosis in human MKN45 cells at 1 uM after 24 hrs by Annexin V-FITC staining based flow cytometry relative to control; format: functional
MKN-45 [4] = experiment: Induction of ROS generation in human MKN45 cells at 0.1 to 1 uM after 30 mins by H2DCFDA staining based flow cytometry; format: functional, cell-based
HCT-116 [5] = experiment: Antiproliferative activity against human HCT116 cells after 72 hrs by MTT assay; format: functional, cell-based; settings: HCT-116, 72 h
Lymphocyte = experiment: Cytotoxicity against human lymphocytes assessed as reduction in cell viability at 25 uM after 72 hrs by MTT assay; format: cell-based
[6] = Cell cycle arrest in human K562/4 cells assessed as accumulation at sub-G1 phase at 1 uM up to 48 hrs by propidium iodide staining based flow cytometry relative to control; format: functional
K562 [7] = experiment: Cell cycle arrest in human K562 cells assessed as accumulation at G2/M phase at 1 uM after 24 hrs by propidium iodide staining based flow cytometry; format: functional
[8] = Resistance index, ratio of IC50 for p53 knockout human HCT116 cells to IC50 for human HCT116 cells; format: functional
CCRF-CEM = experiment: Antiproliferative activity against human CEM cells after 72 hrs by MTT assay; format: functional, cell-based
L1210 = experiment: Antiproliferative activity against mouse L1210 cells after 48 hrs by MTT assay; format: functional, cell-based; settings: L1210, 48 h
[9] = Substrate activity at P-gp in human K562/4 cells assessed as test compound accumulation at 2 uM after 1 to 24 hrs by flow cytometry; format: ADME, cell-based
TMK-1 [10] = experiment: Induction of apoptosis in human TMK1 cells after 24 hrs by Annexin V-FITC staining based flow cytometry; format: functional, cell-based
TMK-1 [11] = experiment: Induction of apoptosis in human TMK1 cells at 1 uM after 24 hrs by Annexin V-FITC staining based flow cytometry relative to control; format: functional
HeLa = experiment: Antiproliferative activity against human HeLa cells after 72 hrs by MTT assay; format: functional, cell-based
TMK-1 [12] = experiment: Induction of ROS generation in human TMK1 cells at 0.1 to 1 uM after 30 mins by H2DCFDA staining based flow cytometry; format: functional, cell-based
MKN-45 [13] = experiment: Induction of apoptosis in human MKN45 cells after 24 hrs by Annexin V-FITC staining based flow cytometry; format: functional, cell-based
HCT-116 [14] = experiment: Antiproliferative activity against p53 knockout human HCT116 cells after 72 hrs by MTT assay; format: functional, cell-based; settings: HCT-116, 72 h
[15] = target: T1, DNA topoisomerase 1 (Homo sapiens) (UniProt P11387); experiment: Inhibition of human topoisomerase-1 at 10 uM using supercoiled pBR322 DNA as substrate after 30 mins by agarose gel electrophoresis method
T1 sequence (whole entry): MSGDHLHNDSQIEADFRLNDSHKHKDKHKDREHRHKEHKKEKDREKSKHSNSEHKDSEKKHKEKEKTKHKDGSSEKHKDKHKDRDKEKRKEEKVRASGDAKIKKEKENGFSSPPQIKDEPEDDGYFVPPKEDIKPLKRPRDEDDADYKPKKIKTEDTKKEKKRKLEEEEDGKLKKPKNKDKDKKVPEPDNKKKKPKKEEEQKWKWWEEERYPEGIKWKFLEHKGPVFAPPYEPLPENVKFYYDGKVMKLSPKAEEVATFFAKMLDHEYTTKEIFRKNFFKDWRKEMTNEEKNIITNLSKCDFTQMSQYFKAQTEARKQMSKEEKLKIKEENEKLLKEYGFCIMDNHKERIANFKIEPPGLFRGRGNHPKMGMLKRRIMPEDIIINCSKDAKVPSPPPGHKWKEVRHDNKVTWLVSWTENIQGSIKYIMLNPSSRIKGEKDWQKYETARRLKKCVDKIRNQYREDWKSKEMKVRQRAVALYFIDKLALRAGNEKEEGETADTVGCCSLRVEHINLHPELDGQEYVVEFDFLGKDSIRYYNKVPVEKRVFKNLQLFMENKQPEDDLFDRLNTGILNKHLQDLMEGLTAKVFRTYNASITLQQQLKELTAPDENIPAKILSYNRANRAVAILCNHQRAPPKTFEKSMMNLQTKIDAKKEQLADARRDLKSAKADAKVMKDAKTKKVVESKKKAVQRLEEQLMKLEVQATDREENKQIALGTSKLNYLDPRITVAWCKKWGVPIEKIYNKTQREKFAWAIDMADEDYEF

Homo sapiens = organism: Homo sapiens; experiment: Cell cycle arrest in human K562/4 cells assessed as accumulation at G2/M phase at 1 uM after 24 hrs by propidium iodide staining based flow cytometry; format: functional
K562 [16] = experiment: Antiproliferative activity against human K562 cells after 72 hrs by MTT assay; format: functional, cell-based; settings: K562, 72 h
[17] = Resistance index, ratio of IC50 for human K562/4 cells to IC50 for human K562 cells; format: functional
[18] = Antiproliferative activity against human K562/4 cells after 72 hrs by MTT assay; format: functional, cell-based; settings: K562/4, 72 h

Drug uptake [1]: Active
IC50 (HCT-116 [5]): 600 nM
IC50 (CCRF-CEM): 900 nM
IC50 (L1210): 700 nM
Activity [9]: Not Active
IC50 (HeLa): 700 nM
IC50 (HCT-116 [14]): 800 nM
inhibition [15]: Active
IC50 (K562 [16]): 600 nM
SMILES: O=C1c2ccccc2C(=O)c2c1c(O)c1occ(C(=O)NC3CCCNC3)c1c2O (racemic)
Activity (K562 [2]): >70%
Activity (MKN-45 [3]): 60 - 90%
Activity (MKN-45 [4]): Active
Activity (Lymphocyte): Non-Toxic
Activity [6]: >70%
Activity (K562 [7]): Active
Ratio IC50 [8]: 1.3
Activity (TMK-1 [10]): Dose-dependent effect
Activity (TMK-1 [11]): 60 - 90%
Activity (TMK-1 [12]): Active
Activity (MKN-45 [13]): Dose-dependent effect
Activity (Homo sapiens): Active
Ratio IC50 [17]: 2.1
IC50 [18]: 1200 nM

Source: ChEMBL document CHEMBL4196018, “New antitumor anthra[2,3-b]furan-3-carboxamides: Synthesis and structure-activity relationship” (Eur J Med Chem, 2018)
